Assay [1] deals with MCF7. Put plainly: Antiproliferative activity against estrogen receptor dependent human MCF7 cells at 10 uM after 72 hrs by LDH assay. Format: functional.
Assay [2] concerns Ishikawa. Briefly: Antiestrogenic activity in human Ishikawa cells assessed as inhibition of estrogen-induced alkaline phosphatase activity after 72 hrs. Format: functional, cell-based.
In assay [3] the test system is MCF7. Briefly: Antiproliferative activity against estrogen receptor dependent human MCF7 cells after 72 hrs by MTT assay. Format: functional, cell-based. The following applies: MCF7, 72 h.
A further assay concerns the target T1, Estrogen receptor (Homo sapiens, UniProt P03372).
T1 sequence (P03372 whole entry): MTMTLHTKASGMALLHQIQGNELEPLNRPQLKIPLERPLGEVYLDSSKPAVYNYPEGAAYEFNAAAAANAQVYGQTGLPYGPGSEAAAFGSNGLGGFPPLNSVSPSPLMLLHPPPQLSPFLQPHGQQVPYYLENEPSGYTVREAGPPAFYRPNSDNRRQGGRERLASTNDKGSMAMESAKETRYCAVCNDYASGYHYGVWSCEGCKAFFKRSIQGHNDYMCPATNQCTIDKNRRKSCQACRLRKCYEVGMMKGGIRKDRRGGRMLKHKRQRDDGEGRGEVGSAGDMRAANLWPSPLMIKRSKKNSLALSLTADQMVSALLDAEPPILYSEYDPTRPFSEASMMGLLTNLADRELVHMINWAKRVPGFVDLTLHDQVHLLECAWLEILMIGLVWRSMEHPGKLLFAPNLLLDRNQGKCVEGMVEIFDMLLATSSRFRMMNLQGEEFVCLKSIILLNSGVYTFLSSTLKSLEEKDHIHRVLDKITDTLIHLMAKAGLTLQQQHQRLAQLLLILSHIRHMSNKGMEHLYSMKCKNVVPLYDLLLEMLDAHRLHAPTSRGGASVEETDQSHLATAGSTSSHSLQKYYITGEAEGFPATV
Briefly: biochemical.

The target in another assay is Estrogen receptor beta (Homo sapiens, UniProt Q92731). Put plainly: biochemical.
Chain of Estrogen receptor beta (Q92731 whole entry): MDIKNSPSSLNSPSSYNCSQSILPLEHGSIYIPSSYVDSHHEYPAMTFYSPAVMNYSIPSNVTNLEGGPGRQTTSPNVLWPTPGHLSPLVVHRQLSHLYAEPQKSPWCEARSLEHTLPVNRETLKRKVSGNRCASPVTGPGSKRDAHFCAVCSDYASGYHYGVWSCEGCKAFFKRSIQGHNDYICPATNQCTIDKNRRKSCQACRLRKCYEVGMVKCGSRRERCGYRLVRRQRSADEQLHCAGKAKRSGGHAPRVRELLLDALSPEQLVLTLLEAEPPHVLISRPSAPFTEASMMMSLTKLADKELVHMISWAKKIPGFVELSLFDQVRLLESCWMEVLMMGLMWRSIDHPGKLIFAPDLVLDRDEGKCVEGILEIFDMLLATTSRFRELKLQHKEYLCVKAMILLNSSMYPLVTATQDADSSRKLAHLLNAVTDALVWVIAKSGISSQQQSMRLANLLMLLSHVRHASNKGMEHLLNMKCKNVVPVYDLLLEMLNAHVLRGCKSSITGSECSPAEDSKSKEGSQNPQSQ
Assay [4] deals with MDA-MB-231. Put plainly: Antiproliferative activity against hormone independent human MDA-MB-231 cells upto 100 nM after 72 hrs by MTT assay. Format: functional, cell-based. In general terms: Formazan colour is commonly taken as a measure of viable cells.
Assay [5] relates to MDA-MB-231. Put plainly: Antiproliferative activity against hormone independent human MDA-MB-231 cells after 72 hrs by MTT assay. The following applies: MDA-MB-231, 72 h. Format: functional, cell-based.
The subject of assay [6] is Ishikawa. Put plainly: Estrogenic stimulatory activity in human Ishikawa cells assessed as alkaline phosphatase activity at 1 uM after 72 hrs in absence of estradiol. The format is functional.

Data on 15 compounds can be found in ChEMBL document CHEMBL1152252, “Synthesis, biological evaluation, structural-activity relationship, and docking study for a series of benzoxepin-derived estrogen receptor modulators” (Bioorg Med Chem, 2008).

Usually IC50 stands for the point on the concentration scale where inhibition reaches its midpoint.

The structures appear in SMILES notation. Activity calls are given as the source filed them. The calls are words filed in the database; no cut-off is given here.

Description for Estrogen receptor beta: Displacement of fluorescein labeled estradiol from human recombinant ERbeta expressed in baculovirus infected insect cells by fluorescence polarization assay

As for `Oc1ccc(C2=C(c3ccc(OCCN4CCCC4)cc3)c3ccc(O)cc3OCC2)cc1`, the Activity in the assay with MCF7 [1] is 11%; in the assay with Ishikawa [6], 6%. Further, the 50% inhibitory concentration (IC50) with Ishikawa [2] came to 20.8 nM; in the assay with MCF7 [3], 11.9 nM; on Estrogen receptor it was 8.4 nM; against Estrogen receptor beta, 2.9 nM; with MDA-MB-231 [5], 2600 nM. Also, in the assay on MDA-MB-231 [4], the outcome was inactive.

`Fc1ccc(C2=C(c3ccc(OCCN4CCCC4)cc3)c3ccc(F)cc3OCC2)cc1`: the IC50 stood at 450 nM with MCF7 [3], 126 nM at Estrogen receptor and 262 nM against Estrogen receptor beta. Besides, the result in the assay on MDA-MB-231 [4] was inactive.

On to `Oc1ccc(C2=CCCOc3ccccc32)cc1`, for which the Activity in the assay with MCF7 [1] came to 17%.

Regarding `COc1ccc2c(c1)OCCC(c1ccc(O)cc1)=C2c1ccc(OCCN2CCCCC2)cc1`, the half-maximal inhibitory concentration (IC50) in the assay with MCF7 [3] came out at 1540 nM. In addition, the result with MDA-MB-231 [4] was inactive.

In the case of `CC/C(=C(\c1ccccc1)c1ccc(OCCN(C)C)cc1)c1ccccc1` [TAMOXIFEN], the half-inhibitory concentration (IC50) with MCF7 [3] worked out at 4120 nM. The result in the assay on MDA-MB-231 [4] was inactive. Also, the Activity in the assay on Ishikawa [6] is 16.5%.

On to `Oc1ccc(C2=C(c3ccc(OCCN4CCCCC4)cc3)c3ccc(F)cc3OCC2)cc1`, for which the values for the IC50 in the assay on MCF7 [3], on Estrogen receptor and against Estrogen receptor beta were 156 nM, 6.5 nM and 8.78 nM, respectively. For the same compound, the result in the assay on MDA-MB-231 [4] was inactive.

`CCC(=C(c1ccc(O)cc1)c1ccc(OCCN(C)C)cc1)c1ccccc1` registered a concentration for half-maximal inhibition (IC50) in the assay with MCF7 [3] of 107 nM. The outcome with MDA-MB-231 [4] was inactive.

On to `Oc1ccc(C2=C(c3ccc(OCCN4CCCC4)cc3)CCOc3cc(F)ccc32)cc1`, for which the half-maximal inhibitory concentration (IC50) was 216 nM with Ishikawa [2], 6500 nM in the assay on MCF7 [3], 5.57 nM at Estrogen receptor and 17.3 nM against Estrogen receptor beta. In addition, the result in the assay with MDA-MB-231 [4] was inactive. Besides, in the assay on Ishikawa [6], the Activity worked out at 23%.

Regarding `CN(C)CCOc1ccc(C2=C(c3cccs3)CCOc3ccccc32)cc1`, in the assay on MCF7 [3], the 50% inhibitory concentration (IC50) was found to be 16700 nM. The outcome with MDA-MB-231 [4] was inactive.

On to `Oc1ccc(C2=C(c3ccc(OCCN4CCCC4)cc3)c3ccc(F)cc3OCC2)cc1`, for which the IC50 in the assay with Ishikawa [2] came out at 194 nM; in the assay on MCF7 [3] it was 21.4 nM; against Estrogen receptor, 10.4 nM; on Estrogen receptor beta, 0.7 nM; in the assay with MDA-MB-231 [5], 6750 nM. In the assay on MDA-MB-231 [4], the result was inactive. Further, the Activity in the assay with Ishikawa [6] is reported as 9.7%.

Turning to `Oc1cccc(C2=C(c3ccc(OCCN4CCCC4)cc3)c3ccc(F)cc3OCC2)c1`, the concentration for half-maximal inhibition (IC50) is 359 nM with MCF7 [3], 14 nM on Estrogen receptor and 6 nM at Estrogen receptor beta. In addition, the result in the assay with MDA-MB-231 [4] was inactive.

For `CS(=O)(=O)c1ccc(C2=C(c3ccc(OCCN4CCCC4)cc3)c3ccc(F)cc3OCC2)cc1`, the half-inhibitory concentration (IC50) in the assay with MCF7 [3] is 4560 nM; on Estrogen receptor, > 15000 nM; against Estrogen receptor beta, > 15000 nM. In addition, in the assay on MDA-MB-231 [4], the result was inactive.

`COc1ccc2c(c1)OCCC=C2c1ccc(O)cc1` showed an Activity with MCF7 [1] of 17%.

Consider `Fc1ccc2c(c1)OCCC(c1ccccc1)=C2c1ccc(OCCN2CCCC2)cc1`, for which the results for the IC50 in the assay with MCF7 [3], against Estrogen receptor and against Estrogen receptor beta were 1870 nM, 16.2 nM and 31 nM, respectively. Further, in the assay with MDA-MB-231 [4], the result was inactive.

As to `c1ccc(C2=C(c3ccc(OCCN4CCCC4)cc3)c3ccccc3OCC2)cc1`, in the assay with MCF7 [1], the Activity is recorded as 8%. The 50% inhibitory concentration (IC50) with MCF7 [3] is 1580 nM. Besides, the result in the assay with MDA-MB-231 [4] was inactive.
